In patent US10493074B2, “Specific trifluoroethyl quinoline analogue for use in the treatment of Sjögren's syndrome” (UCB Biopharma SPRL, priority 2015, dated 2019):

Experiments:
[1] = system: T and B cells in cannulated salivary glands; assay: FACS analysis of lymphocyte profile in salivary glands, inducible murine model of ectopic lymphoid tissue formation (Sjögren's syndrome model); type: in vivo, mice (C57BL/6); settings: for number of T and B cells in cannulated salivary glands: day 15 post-cannulation, vs vehicle
Experimental: N-{(R)-1-[8-Chloro-2-(1-oxypyridin-3-yl)quinolin-3-yl]-2,2,2-trifluoroethyl}-pyrido[3,2-d]pyrimidin-4-ylamine [hereinafter referred to as “Compound (A)”] was investigated in vivo in an inducible model of ectopic lymphoneogenesis in murine salivary glands that mimics Sjögren's syndrome. The results obtained are depicted in the accompanying drawings, in which:
(§1) Compound (A) was assessed in the in vivo murine model of inducible ectopic lymphoid tissue formation described by M. Bombardieri et al. in J. Immunol., 2012, 189, 3767-3776, which is a recognised animal model of Sjögren's syndrome.
(§2) Briefly, wild type (C57BL/6) mice were given replication-defective adenovirus 5 (AdV5) (10^8 p.f.u.) via retrograde cannulation of submandibular gland excretory ducts and sacrificed at specific time points post-cannulation. Compound (A), or vehicle control, was administered by gavage daily both prophylactically and therapeutically, starting at either day 0 or day 3 post-cannulation respectively. In order to assess immune cell status in isolated murine salivary glands, flow cytometry on single cell suspensions and quantitative real time PCR were used to evaluate protein and mRNA expression in the samples.
Replication-defective AdV5-infused salivary glands from mice dosed with either Compound (A) or vehicle were isolated from culled mice at different time points. Glands were dissected and placed in RPMI-1640 (with 2% FCS) (1 mL) on ice. Once all salivary glands were collected, RPMI-1640 was removed and replaced with enzyme mix (RMPI with 2% FCS, 0.8 mg/mL Dispase, 0.2 mg/mL Collagenase P, and 0.1 mg/mL DNase I) (2 mL). Salivary glands were cut into small pieces and tubes were incubated at 37° C. in a water bath, with magnetic stirrers. After 20 minutes, salivary gland fragments were very gently pipetted, using a 1 mL pipette, to disrupt the tissue further and release most cells. The mixture was replaced in the water bath and large fragments were allowed to settle for 30 s, after which time the enzyme mix was removed. […] Cells were filtered through 70 μm nylon mesh and counted using a haemocytometer. […]

[2] = system: TLO (tertiary lymphoid organ) associated genes; assay: Quantitative RT-PCR of TLO associated genes in salivary glands, inducible murine model of ectopic lymphoid tissue formation (Sjögren's syndrome model); type: in vivo, mice (C57BL/6)
Experimental: Quantitative RT-PCR analysis of mRNA transcripts coding for indicated genes, normalised to housekeeping gene. The relative expression values presented as RQ were calibrated with day 0 post-cannulation salivary gland values.
as §1, §2

[O-][n+]1cccc(-c2nc3c(Cl)cccc3cc2[C@@H](Nc2ncnc3cccnc23)C(F)(F)F)c1 [Compound (A), N-{(R)-1-[8-Chloro-2-(1-oxypyridin-3-yl)quinolin-3-yl]-2,2,2-trifluoroethyl}-pyrido[3,2-d]pyrimidin-4-ylamine]
disaggregation of the inflammatory foci and resolution of salivary gland inflammation ([1]; dosed either prophylactically or therapeutically, overall conclusion from the model): effective
number of T and B cells in cannulated salivary glands ([1]; treated prophylactically from day 0, by gavage daily, flow cytometry (FIG. 1)): significant decrease
number of T and B cells in cannulated salivary glands ([1]; treated therapeutically from day 3 post-cannulation, by gavage daily, flow cytometry (FIG. 2)): significant decrease
gene expression profile of TLO associated genes ([2]; treated prophylactically from day 0, day 15 post-cannulation, vs vehicle (FIGS. 3 & 4)): significantly inhibited
gene expression profile of TLO associated genes ([2]; treated therapeutically from day 3 post-cannulation, day 15 post-cannulation, vs vehicle (FIG. 4)): decrease was conserved
